Measured values reported in article PMC6540285, “Evaluation of Protein Kinase Inhibitors with PLK4 Cross-Over Potential in a Pre-Clinical Model of Cancer” (International Journal of Molecular Sciences, 2019).

Key:
FGR = FGR (Homo sapiens, UniProt P09769); assay: SelectScreen kinase profiling, ZLYTE; assay type: biochemical
PAK4 = PAK4 (Homo sapiens, UniProt O96013); assay: SelectScreen kinase profiling, ZLYTE; assay type: biochemical; details: PAK4, 10 µM
MELK = MELK (Homo sapiens, UniProt Q14680); assay: SelectScreen kinase profiling, ZLYTE; assay type: biochemical
PRKD1 (PKC mu) = PRKD1 (PKC mu) (Homo sapiens, UniProt Q15139); assay: SelectScreen kinase profiling, ZLYTE; assay type: biochemical
PRKCA (PKC alpha) = PRKCA (PKC alpha) (Homo sapiens, UniProt P17252); assay: SelectScreen kinase profiling, ZLYTE; assay type: biochemical
MYLK (MLCK) = MYLK (MLCK) (Homo sapiens, UniProt Q15746); assay: SelectScreen kinase profiling, LanthaScreen binding
MAP4K3 (GLK) = MAP4K3 (GLK) (Homo sapiens, UniProt Q8IVH8); assay: as above
AMPK (A2/B1/G3) = AMPK (A2/B1/G3) (Homo sapiens, UniProt P54646); assay: SelectScreen kinase profiling, ZLYTE; assay type: biochemical
CDK7/cyclin H/MNAT1 = CDK7/cyclin H/MNAT1 (Homo sapiens, UniProt P50613); assay: SelectScreen kinase profiling, Adapta; assay type: biochemical; details: CDK7/cyclin H/MNAT1, 10 µM
BRAF = BRAF (Homo sapiens, UniProt P15056); assay: SelectScreen kinase profiling, LanthaScreen binding
HIPK4 = HIPK4 (Homo sapiens, UniProt Q8NE63); assay: SelectScreen kinase profiling, ZLYTE; assay type: biochemical; details: HIPK4, 10 µM
SGKL (SGK3) = SGKL (SGK3) (Homo sapiens, UniProt Q96BR1); assay: SelectScreen kinase profiling, ZLYTE; assay type: biochemical
DDR2 T654M = DDR2 T654M (Homo sapiens, UniProt Q16832, T654M); assay: SelectScreen kinase profiling, LanthaScreen binding
Sequence of DDR2 T654M (Q16832 22-855 T654M): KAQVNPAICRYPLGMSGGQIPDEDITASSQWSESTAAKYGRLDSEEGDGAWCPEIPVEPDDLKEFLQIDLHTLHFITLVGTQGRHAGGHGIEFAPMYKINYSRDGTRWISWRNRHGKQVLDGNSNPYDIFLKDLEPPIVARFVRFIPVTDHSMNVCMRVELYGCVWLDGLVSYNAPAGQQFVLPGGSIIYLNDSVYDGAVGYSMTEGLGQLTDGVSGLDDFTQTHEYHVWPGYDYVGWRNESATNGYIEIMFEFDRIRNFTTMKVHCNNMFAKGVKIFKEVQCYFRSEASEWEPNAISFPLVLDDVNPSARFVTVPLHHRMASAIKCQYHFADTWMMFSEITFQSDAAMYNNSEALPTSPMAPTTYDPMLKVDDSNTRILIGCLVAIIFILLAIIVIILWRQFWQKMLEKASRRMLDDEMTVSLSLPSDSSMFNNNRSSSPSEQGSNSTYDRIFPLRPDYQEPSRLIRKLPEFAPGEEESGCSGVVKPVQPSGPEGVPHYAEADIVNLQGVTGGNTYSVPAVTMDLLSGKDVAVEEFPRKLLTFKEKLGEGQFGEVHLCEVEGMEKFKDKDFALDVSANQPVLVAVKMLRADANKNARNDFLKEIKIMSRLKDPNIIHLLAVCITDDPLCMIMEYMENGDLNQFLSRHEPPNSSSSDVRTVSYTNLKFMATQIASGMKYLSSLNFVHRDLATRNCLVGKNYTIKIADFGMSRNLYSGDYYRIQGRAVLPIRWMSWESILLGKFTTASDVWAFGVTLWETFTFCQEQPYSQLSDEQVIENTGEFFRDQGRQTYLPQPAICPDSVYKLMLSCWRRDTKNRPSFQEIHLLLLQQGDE

STK16 (PKL12) = STK16 (PKL12) (Homo sapiens, UniProt O75716); assay: as above
Sequence of STK16 (PKL12) (O75716 whole entry): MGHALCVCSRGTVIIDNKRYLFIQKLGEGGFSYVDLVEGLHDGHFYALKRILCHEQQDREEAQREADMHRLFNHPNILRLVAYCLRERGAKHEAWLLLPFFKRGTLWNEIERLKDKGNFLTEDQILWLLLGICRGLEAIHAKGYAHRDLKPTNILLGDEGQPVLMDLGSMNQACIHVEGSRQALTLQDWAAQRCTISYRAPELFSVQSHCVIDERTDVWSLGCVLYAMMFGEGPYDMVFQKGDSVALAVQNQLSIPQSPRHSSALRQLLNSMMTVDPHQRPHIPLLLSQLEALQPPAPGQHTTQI

PIK3CG (p110 gamma) = PIK3CG (p110 gamma) (Homo sapiens, UniProt P48736); assay: SelectScreen kinase profiling, Adapta; assay type: biochemical
EPHA7 = EPHA7 (Homo sapiens, UniProt Q15375); assay: SelectScreen kinase profiling, LanthaScreen binding; details: EPHA7, 10 µM
CSNK2A2 (CK2 alpha 2) = CSNK2A2 (CK2 alpha 2) (Homo sapiens, UniProt P19784); assay: SelectScreen kinase profiling, ZLYTE; assay type: biochemical
GSG2 (Haspin) = GSG2 (Haspin) (Homo sapiens, UniProt Q8TF76); assay: SelectScreen kinase profiling, Adapta; assay type: biochemical
[1] = target: PIK3CA E542K/PIK3R1 (p110 alpha E542K/p85 alpha) (Homo sapiens, UniProt P42336, E542K); assay: SelectScreen kinase profiling, Adapta; assay type: biochemical; details: PIK3CA E542K/PIK3R1, 10 µM
Sequence of PIK3CA E542K/PIK3R1 (p110 alpha E542K/p85 alpha) (P42336 whole entry E542K): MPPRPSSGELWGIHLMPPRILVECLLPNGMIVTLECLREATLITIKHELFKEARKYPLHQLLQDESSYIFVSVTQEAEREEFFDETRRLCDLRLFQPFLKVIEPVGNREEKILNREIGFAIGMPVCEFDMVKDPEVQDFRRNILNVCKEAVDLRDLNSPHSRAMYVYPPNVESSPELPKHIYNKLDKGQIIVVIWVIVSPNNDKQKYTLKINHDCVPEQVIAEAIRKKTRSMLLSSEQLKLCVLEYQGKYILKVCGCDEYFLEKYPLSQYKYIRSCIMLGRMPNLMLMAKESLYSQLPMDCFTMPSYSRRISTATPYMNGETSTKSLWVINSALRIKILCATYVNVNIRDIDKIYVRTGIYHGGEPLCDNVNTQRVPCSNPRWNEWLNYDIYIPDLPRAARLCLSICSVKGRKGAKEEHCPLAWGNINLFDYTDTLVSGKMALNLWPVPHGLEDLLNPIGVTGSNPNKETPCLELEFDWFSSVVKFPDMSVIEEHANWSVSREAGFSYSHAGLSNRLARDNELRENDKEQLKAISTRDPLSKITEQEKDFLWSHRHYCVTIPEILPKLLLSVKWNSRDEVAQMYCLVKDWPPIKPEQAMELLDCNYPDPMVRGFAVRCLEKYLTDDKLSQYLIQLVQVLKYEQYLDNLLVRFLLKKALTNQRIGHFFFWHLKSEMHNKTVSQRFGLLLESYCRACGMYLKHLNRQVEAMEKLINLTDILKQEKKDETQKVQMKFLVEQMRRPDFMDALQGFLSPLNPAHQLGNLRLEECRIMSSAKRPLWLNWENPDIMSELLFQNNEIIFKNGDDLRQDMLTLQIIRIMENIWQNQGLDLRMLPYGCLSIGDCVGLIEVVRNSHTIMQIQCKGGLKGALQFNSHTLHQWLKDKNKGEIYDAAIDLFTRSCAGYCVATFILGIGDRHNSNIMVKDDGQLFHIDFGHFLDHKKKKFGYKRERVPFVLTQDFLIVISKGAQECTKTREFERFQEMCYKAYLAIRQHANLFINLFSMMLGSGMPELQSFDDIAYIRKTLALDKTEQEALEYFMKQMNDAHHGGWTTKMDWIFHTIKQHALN
Sequence of PIK3CA E542K/PIK3R1 (p110 alpha E542K/p85 alpha) (P27986 whole entry partner): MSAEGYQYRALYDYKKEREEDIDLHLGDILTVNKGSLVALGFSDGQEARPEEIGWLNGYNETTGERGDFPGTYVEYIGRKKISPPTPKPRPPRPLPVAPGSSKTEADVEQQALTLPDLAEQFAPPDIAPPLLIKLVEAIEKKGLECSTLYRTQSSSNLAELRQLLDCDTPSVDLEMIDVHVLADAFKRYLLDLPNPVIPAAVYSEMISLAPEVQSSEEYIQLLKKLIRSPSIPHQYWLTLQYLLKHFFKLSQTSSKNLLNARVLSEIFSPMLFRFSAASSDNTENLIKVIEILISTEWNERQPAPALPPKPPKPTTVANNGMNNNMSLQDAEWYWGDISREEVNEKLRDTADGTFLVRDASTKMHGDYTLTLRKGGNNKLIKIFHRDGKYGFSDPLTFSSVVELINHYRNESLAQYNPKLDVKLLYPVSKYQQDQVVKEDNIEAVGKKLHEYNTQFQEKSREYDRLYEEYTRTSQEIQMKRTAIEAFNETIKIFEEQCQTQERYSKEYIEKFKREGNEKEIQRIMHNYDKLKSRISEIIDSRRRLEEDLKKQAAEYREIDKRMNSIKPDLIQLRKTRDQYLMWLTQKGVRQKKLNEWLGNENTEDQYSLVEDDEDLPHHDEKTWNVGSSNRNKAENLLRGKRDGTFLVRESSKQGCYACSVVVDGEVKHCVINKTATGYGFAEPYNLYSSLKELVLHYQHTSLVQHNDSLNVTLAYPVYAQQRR

DDR1 = DDR1 (Homo sapiens, UniProt Q08345); assay: SelectScreen kinase profiling, LanthaScreen binding; details: DDR1, 10 µM
LATS2 = LATS2 (Homo sapiens, UniProt Q9NRM7); assay: as above; details: LATS2, 10 µM
FRK (PTK5) = FRK (PTK5) (Homo sapiens, UniProt P42685); assay: SelectScreen kinase profiling, ZLYTE; assay type: biochemical
MLK4 = MLK4 (Homo sapiens, UniProt Q5TCX8); assay: SelectScreen kinase profiling, LanthaScreen binding; details: MLK4, 10 µM
AMPK (A1/B2/G2) = AMPK (A1/B2/G2) (Homo sapiens, UniProt Q13131); assay: SelectScreen kinase profiling, ZLYTE; assay type: biochemical
STK23 (MSSK1) = STK23 (MSSK1) (Homo sapiens, UniProt Q9UPE1); assay: SelectScreen kinase profiling, ZLYTE; assay type: biochemical
Sequence of STK23 (MSSK1) (Q9UPE1 whole entry): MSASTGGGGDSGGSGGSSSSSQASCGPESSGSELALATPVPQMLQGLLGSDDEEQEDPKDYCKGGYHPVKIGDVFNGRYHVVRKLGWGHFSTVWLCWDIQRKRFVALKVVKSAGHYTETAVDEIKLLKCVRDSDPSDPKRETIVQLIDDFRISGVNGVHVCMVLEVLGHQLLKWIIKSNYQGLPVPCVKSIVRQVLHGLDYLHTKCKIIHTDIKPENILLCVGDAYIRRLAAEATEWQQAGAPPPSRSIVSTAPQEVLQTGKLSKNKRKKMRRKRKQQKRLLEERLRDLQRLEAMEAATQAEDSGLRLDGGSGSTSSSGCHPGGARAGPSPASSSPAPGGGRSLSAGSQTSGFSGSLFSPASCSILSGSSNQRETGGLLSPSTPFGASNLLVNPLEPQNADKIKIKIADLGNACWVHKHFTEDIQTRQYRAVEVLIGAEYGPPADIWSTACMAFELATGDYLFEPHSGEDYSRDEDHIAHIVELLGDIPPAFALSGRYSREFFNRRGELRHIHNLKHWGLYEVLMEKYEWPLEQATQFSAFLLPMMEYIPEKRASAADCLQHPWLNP
Source text: Kinase Technology % Inhibition Avg Kinase Technology % Inhibition Avg

ABL1 G250E = ABL1 G250E (Homo sapiens, UniProt P00519, G250E); assay: SelectScreen kinase profiling, ZLYTE; assay type: biochemical
HCK = HCK (Homo sapiens, UniProt P08631); assay: SelectScreen kinase profiling, ZLYTE; assay type: biochemical
ERN2 = ERN2 (Homo sapiens, UniProt Q76MJ5); assay: SelectScreen kinase profiling, LanthaScreen binding; details: ERN2, 10 µM
ADRBK1 (GRK2) = ADRBK1 (GRK2) (Homo sapiens, UniProt P25098); assay: SelectScreen kinase profiling, ZLYTE; assay type: biochemical
PI4KB (PI4K beta) = PI4KB (PI4K beta) (Homo sapiens, UniProt Q9UBF8); assay: SelectScreen kinase profiling, Adapta; assay type: biochemical
PAK6 = PAK6 (Homo sapiens, UniProt Q9NQU5); assay: SelectScreen kinase profiling, ZLYTE; assay type: biochemical; details: PAK6, 10 µM
EPHB2 = EPHB2 (Homo sapiens, UniProt P29323); assay: SelectScreen kinase profiling, ZLYTE; assay type: biochemical; details: EPHB2, 10 µM
[2] = target: MAP2K6 (MKK6) S207E T211E (Homo sapiens, UniProt P52564, S207E/T211E); assay: SelectScreen kinase profiling, LanthaScreen binding
MAPK8 (JNK1) = MAPK8 (JNK1) (Homo sapiens, UniProt P45983); assay: SelectScreen kinase profiling, ZLYTE; assay type: biochemical
PRKCH (PKC eta) = PRKCH (PKC eta) (Homo sapiens, UniProt P24723); assay: SelectScreen kinase profiling, ZLYTE; assay type: biochemical
CDK3/cyclin E1 = CDK3/cyclin E1 (Homo sapiens, UniProt Q00526); assay: SelectScreen kinase profiling, LanthaScreen binding; details: CDK3/cyclin E1, 10 µM
PRKACB (PRKAC beta) = PRKACB (PRKAC beta) (Homo sapiens, UniProt P22694); assay: as above
DAPK2 = DAPK2 (Homo sapiens, UniProt Q9UIK4); assay: as above; details: DAPK2, 10 µM
MET D1228H = MET D1228H (Homo sapiens, UniProt P08581, D1228H); assay: as above
Sequence of MET D1228H (P08581 25-1390 D1228H): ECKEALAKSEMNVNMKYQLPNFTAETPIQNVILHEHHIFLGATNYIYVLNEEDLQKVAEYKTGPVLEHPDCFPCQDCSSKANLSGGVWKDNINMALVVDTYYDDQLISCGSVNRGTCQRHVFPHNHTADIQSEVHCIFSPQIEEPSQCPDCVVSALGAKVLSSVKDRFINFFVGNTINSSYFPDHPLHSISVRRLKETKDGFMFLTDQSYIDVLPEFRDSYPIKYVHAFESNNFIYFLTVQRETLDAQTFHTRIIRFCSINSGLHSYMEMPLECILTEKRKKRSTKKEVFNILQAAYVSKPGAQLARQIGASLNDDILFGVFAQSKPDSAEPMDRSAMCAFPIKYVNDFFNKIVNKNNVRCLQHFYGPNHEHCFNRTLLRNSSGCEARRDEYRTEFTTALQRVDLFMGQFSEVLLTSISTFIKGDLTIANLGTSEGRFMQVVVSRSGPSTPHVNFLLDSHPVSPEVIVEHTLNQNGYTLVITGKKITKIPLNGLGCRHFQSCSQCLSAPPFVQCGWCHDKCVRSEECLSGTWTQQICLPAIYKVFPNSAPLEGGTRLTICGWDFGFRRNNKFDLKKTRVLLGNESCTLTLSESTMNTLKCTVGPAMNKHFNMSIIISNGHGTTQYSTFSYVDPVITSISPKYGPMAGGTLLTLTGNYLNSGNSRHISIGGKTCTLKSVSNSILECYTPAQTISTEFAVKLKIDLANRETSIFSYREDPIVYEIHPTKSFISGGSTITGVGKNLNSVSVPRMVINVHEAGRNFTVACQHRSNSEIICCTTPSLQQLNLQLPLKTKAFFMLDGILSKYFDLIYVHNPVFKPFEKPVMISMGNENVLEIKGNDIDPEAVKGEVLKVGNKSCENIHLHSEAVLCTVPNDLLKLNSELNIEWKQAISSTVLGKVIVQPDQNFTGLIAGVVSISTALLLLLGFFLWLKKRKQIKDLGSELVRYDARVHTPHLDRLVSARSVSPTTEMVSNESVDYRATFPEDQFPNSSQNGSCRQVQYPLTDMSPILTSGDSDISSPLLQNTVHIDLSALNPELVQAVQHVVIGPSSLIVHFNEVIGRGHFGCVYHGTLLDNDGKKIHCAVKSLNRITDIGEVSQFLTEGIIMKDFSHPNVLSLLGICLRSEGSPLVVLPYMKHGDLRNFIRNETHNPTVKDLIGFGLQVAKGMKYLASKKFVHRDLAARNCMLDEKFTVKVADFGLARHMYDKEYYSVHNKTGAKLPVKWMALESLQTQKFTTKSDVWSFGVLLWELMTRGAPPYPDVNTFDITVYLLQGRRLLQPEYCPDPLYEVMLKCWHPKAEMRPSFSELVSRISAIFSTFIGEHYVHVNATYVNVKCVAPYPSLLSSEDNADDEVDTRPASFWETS

SMILES: O=C(c1ccc(/C=C/c2n[nH]c3ccccc23)cc1)N1CCNCC1 [KW-2449]
- inhibition at 10 µM (FGR): 99%
- inhibition at 10 µM (PAK4): 94%
- inhibition at 10 µM (MELK): 101%
- inhibition at 10 µM (PRKD1 (PKC mu)): 97%
- inhibition at 10 µM (PRKCA (PKC alpha)): 61%
- inhibition at 10 µM (MYLK (MLCK)): 80%
- inhibition at 10 µM (MAP4K3 (GLK)): 72%
- inhibition at 10 µM (AMPK (A2/B1/G3)): 96%
- inhibition at 10 µM (CDK7/cyclin H/MNAT1): 98%
- inhibition at 10 µM (BRAF): -1%
- inhibition at 10 µM (HIPK4): 85%
- inhibition at 10 µM (SGKL (SGK3)): 52%
- inhibition at 10 µM (DDR2 T654M): 84%
- inhibition at 10 µM (STK16 (PKL12)): 83%
- inhibition at 10 µM (PIK3CG (p110 gamma)): 8%
- inhibition at 10 µM (EPHA7): 66%
- inhibition at 10 µM (CSNK2A2 (CK2 alpha 2)): 38%
- inhibition at 10 µM (GSG2 (Haspin)): 74%
- inhibition at 10 µM [1]: 13%
- inhibition at 10 µM (DDR1): 55%
- inhibition at 10 µM (LATS2): 68%
- inhibition at 10 µM (FRK (PTK5)): 90%
- inhibition at 10 µM (MLK4): 17%
- inhibition at 10 µM (AMPK (A1/B2/G2)): 99%
- inhibition at 10 µM (STK23 (MSSK1)): 59%
- inhibition at 10 µM (ABL1 G250E): 100%
- inhibition at 10 µM (HCK): 90%
- inhibition at 10 µM (ERN2): 74%
- inhibition at 10 µM (ADRBK1 (GRK2)): 38%
- inhibition at 10 µM (PI4KB (PI4K beta)): 10%
- inhibition at 10 µM (PAK6): 60%
- inhibition at 10 µM (EPHB2): 95%
- inhibition at 10 µM [2]: 82%
- inhibition at 10 µM (MAPK8 (JNK1)): 96%
- inhibition at 10 µM (PRKCH (PKC eta)): -2%
- inhibition at 10 µM (CDK3/cyclin E1): 48%
- inhibition at 10 µM (PRKACB (PRKAC beta)): 48%
- inhibition at 10 µM (DAPK2): 64%
- inhibition at 10 µM (MET D1228H): 75%
